Structures can show the parent of a compound that is named as a salt. Where two headings read alike, the source gives them in different places. Where only a bound is given, the exact number is not on record here.

The conditions of series [1]: cited from earlier work.
Series [2] is described as follows: Florphenicol pharmacokinetics, FOLA vs commercially available, 20 mg/kg, 3 days. Format: in vivo, commercial poultry. As to conditions: along three days, 20 mg/kg in food, when included in FOLA system. The protocol: Note generation of concentrations higher than traditional system (Cmax, MRT and AUC), which makes suitable its PK/PD ratio when included in FOLA system.
Note a generation of concentrations lower than 3 μg/mL, making suitable its PK/PD ratio when included in FOLA system.
Tests in Commercial Poultry
Variables disclosed below are pharmacokinetically obtained for florphenicol in FOLA and a commercially available reference preparation administered during 3 days: […]

A short description of series [3]: Background bioavailability and elimination of drugs in pigs. To be noted: associated to FOLA system, single dose in the morning with food. The source says:
Serum concentrations are not reached by night and in breeding sows doses should be 3000 ppm as they only eat an average of 2 kg with a weight of 300 kg. This is obviously not performed as they would reject food. • Tylosin and tiamulin are often underdosed due to costs. […] FOLA system achieves that easily even better than if that would have been injected. • Provision of phosphomycin in food is not useful since its F is below 20% and is eliminated in a few hours. Associated to FOLA system the results allow a single dose in the morning with food reaching F close to 100% and during 24 hours.

For series [4] the following is noted: pigs, cited from earlier work; for F (bioavailability): conventional oral administration.
The conditions of series [5]: humans; cited from earlier work.
Series [6] is described as follows: Tylosin tartrate pharmacokinetics, FOLA vs commercially available, 200 ppm in food. As to conditions: when included in FOLA system, food ad libitum, poultry of 1.9 kg. The series is classed as in vivo, commercial poultry. The source says:
Note generation of concentrations quite higher than traditional system (Cmax, MRT and AUC), which makes suitable its PK/PD ratio when included in FOLA system.
For Tylosin in commercial poultry, very high concentrations are achieved when FOLA system is used and which remain with therapeutic effect along night as shown in charts of FIGS. 4a and 4b. Variables disclosed below are pharmacokinetically obtained for tylosin in FOLA and a commercially available reference preparation: […]

Setting [7] is: commercial poultry, conventional oral administration.

Turning to `CN(C)[C@@H]1C(O)=C(C(N)=O)C(=O)[C@@]2(O)C(O)=C3C(=O)c4c(O)ccc(Cl)c4[C@@](C)(O)[C@H]3C[C@@H]12` [chlortetracycline], in series [1] (setting [7]), the “F (bioavailability)” value was 20%.
Consider `CS(=O)(=O)c1ccc([C@@H](O)[C@@H](CF)NC(=O)C(Cl)Cl)cc1` [Florphenicol], for which the “serum concentrations (FIG. 8b)” value in series [2] is on record as “lower than 3 μg/mL”.
Consider `CN(C)[C@@H]1C(O)=C(C(N)=O)C(=O)[C@@]2(O)C(O)=C3C(=O)c4c(O)cccc4[C@@](C)(O)[C@H]3[C@H](O)[C@@H]12` [Oxytetracycline], for which the “F (bioavailability)” value is 20% in series [1] (setting [7]) and “around 20%” in series [1] (commercial poultry, conventional oral administration, listed as oxytetracycline base).
`CC[C@H]1OC(=O)C[C@@H](O)[C@H](C)[C@@H](O[C@@H]2O[C@H](C)[C@@H](O[C@H]3C[C@@](C)(O)[C@@H](O)[C@H](C)O3)[C@H](N(C)C)[C@H]2O)[C@@H](CC=O)C[C@@H](C)C(=O)/C=C/C(C)=C/[C@@H]1CO[C@@H]1O[C@H](C)[C@@H](O)[C@@H](OC)[C@H]1OC` [Tylosin]: in series [1] (setting [7]), the “F (bioavailability)” value is listed as < 40%.
On to `C[C@@H]1O[C@@H]1P(=O)(O)O` [Phosphomycin], for which the “F (bioavailability)” value is ~100% in series [3] and “below 20%” in series [4]. Besides, the “time to removal from plasma and tissues” value in series [1] (in water, usual doses 10-40 mg/kg/day) was 6 to 8 h.
For the compound `COc1cc(Cc2cnc(N)nc2N)cc(OC)c1OC` [TMP, trimethoprim], the elimination half-life in series [4] was 1 h. In addition, the T½β was 1 h in series [1] (birds) and 10 h in series [5].
In the case of `CC[C@H]1OC(=O)C[C@@H](O)[C@H](C)[C@@H](O[C@@H]2O[C@H](C)[C@@H](O[C@H]3C[C@@](C)(O)[C@@H](O)[C@H](C)O3)[C@H](N(C)C)[C@H]2O)[C@@H](CC=O)C[C@@H](C)C(=O)/C=C/C(C)=C/[C@@H]1CO[C@@H]1O[C@H](C)[C@@H](O)[C@@H](OC)[C@H]1OC` [tylosin tartrate], the “concentrations reached (FIG. 4b)” value in series [6] is “exceeding 1.5 μg/mL”.
Take `CN[C@@H]1[C@H](O)[C@H](NC)[C@H]2O[C@@]3(O)C(=O)C[C@@H](C)O[C@H]3O[C@@H]2[C@H]1O` [Spectinomycin]: the “F (bioavailability)” value in series [4] is reported as 7%.
Turning to `CC[C@H]1OC(=O)[C@H](C)[C@@H](O[C@H]2C[C@@](C)(OC)[C@@H](O)[C@H](C)O2)[C@H](C)[C@@H](O[C@@H]2O[C@H](C)C[C@H](N(C)C)[C@H]2O)[C@](C)(O)C[C@@H](C)C(=O)[C@H](C)[C@@H](O)[C@]1(C)O` [Erithromycin], in series [1] (in vivo, po), the “F (bioavailability)” value is reported as 18%.
Consider `CCC[C@@H]1C[C@@H](C(=O)N[C@@H]([C@H]2O[C@H](SC)[C@H](O)[C@@H](O)[C@H]2O)[C@@H](C)O)N(C)C1` [Lincomycin], for which the life in series [4] is recorded as ≥ 20%.
